Data from PMC2248166, “Quantitative peptide binding motifs for 19 human and mouse MHC class I molecules derived using positional scanning combinatorial peptide libraries” (Immunome Research, 2008).

Columns and labels:
Type in all cases: binding
HLA A*3001 = HLA A*3001 (Homo sapiens, UniProt P04439, D140H/D185E/E176W/F33S/G80R/H175R/K168Q/R138E/R41S); experiment: biochemical
HLA A*3201 = HLA A*3201 (Homo sapiens, UniProt P04439, A270S/D101S/D185E/E176V/E277Q/F133L/G103R/G107R/G231S/H175R/I121M/I218V/I322F/K168Q/L105A/L300P/L318F/M331R/P208A/P217A/Q94H/R106L/R138Q/S129P/T104I/T323A/T345S/V100E/V321M/V358M); experiment: biochemical
HLA A*6802 = HLA A*6802 (Homo sapiens, UniProt P04439, A269V/D140Y/D185E/E176V/E277Q/E87N/F33Y/G231S/I121R/I166T/I218V/L180W/L300P/L318F/N151K/P208A/P217A/Q86R/R138H/R169H/S129P/T345S/V36M)
HLA B*0801 = HLA B*0801 (Homo sapiens, UniProt P01889, A93T/A95T/D138N/E176V/E187T/K202T/Q94N/R180D/S35A/V36M/Y33D/Y91F); experiment: biochemical
HLA B*1501 = HLA B*1501 (Homo sapiens, UniProt P01889, A329T/A93T/A95T/C349S/D201E/D98Y/E187L/E204Q/E69M/E70A/K202T/N87E/Q94N/R155S/R180W/S121R/S35A/S48A/V306I/V36M/Y140S/Y91S); experiment: biochemical
HLA B*1503 = HLA B*1503 (Homo sapiens, UniProt P01889, A329T/A93T/A95T/C349S/D201E/D98Y/E187L/E204Q/K202T/N87E/Q94N/R155S/R180L/S121R/S35A/V306I/V36M/Y140S/Y91S); experiment: biochemical
HLA B*3501 = HLA B*3501 (Homo sapiens, UniProt P01889, A329T/A93T/A95T/C349S/D201E/D98Y/E176V/E187L/E204Q/E69T/I218V/K202T/L119I/Q94N/R155S/R180L/S121R/S35A/S48A/T118I/V127L/V306I/V36M/Y140S/Y91F)
HLA B*5101 = HLA B*5101 (Homo sapiens, UniProt P01889, A329T/A93T/A95T/C349S/D138N/D201E/D98Y/E187L/E204Q/E69T/G107R/I218V/K202T/L105A/L119W/N104I/Q94N/R106L/R155S/R180L/S101N/S121T/S35A/S48A/V306I/V36M/Y195H/Y91F)
HLA B*5301 = HLA B*5301 (Homo sapiens, UniProt P01889, A329T/A93T/A95T/C349S/D201E/D98Y/E176V/E187L/E204Q/E69T/G107R/I218V/K202T/L105A/L119I/N104I/Q94N/R106L/R155S/R180L/S101N/S121R/S35A/S48A/T118I/V127L/V306I/V36M/Y140S/Y91F)
HLA B*5401 = HLA B*5401 (Homo sapiens, UniProt P01889, A329T/C349S/D138N/D201E/E176V/E187T/E204Q/E69G/I76V/K202T/L119W/R155S/R180L/S121T/S35A/S48A/V127L/V306I/V36M/Y140L)
HLA B*5801 = HLA B*5801 (Homo sapiens, UniProt P01889, A329T/C349S/D201E/D98Y/E176V/E187L/E204Q/E69T/G107R/I218V/I90N/K202T/L105A/L119I/N104I/N87E/Q89R/Q94S/R106L/R155S/R180L/R86G/S101N/S121R/S35A/S48A/T118I/V127L/V306I/V36M/Y140S/Y91M)
HLA B*5802 = HLA B*5802 (Homo sapiens, UniProt P01889, A329T/C349S/D201E/D98Y/E176V/E187L/E204Q/E69T/G107R/I218V/I90N/K202T/L105A/N104I/N87E/Q89R/Q94S/R106L/R155S/R180L/R86G/S101N/S121W/S35A/S48A/V127L/V306I/V36M/Y140S/Y91M)
H-2 D^b = H-2 D^b (Mus musculus, UniProt P01899)
Sequence of H-2 D^b (P01887 21-119): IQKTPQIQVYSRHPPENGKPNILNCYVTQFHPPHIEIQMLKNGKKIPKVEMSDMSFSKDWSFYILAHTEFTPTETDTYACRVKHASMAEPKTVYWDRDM
Sequence of H-2 D^b (P01899 25-362): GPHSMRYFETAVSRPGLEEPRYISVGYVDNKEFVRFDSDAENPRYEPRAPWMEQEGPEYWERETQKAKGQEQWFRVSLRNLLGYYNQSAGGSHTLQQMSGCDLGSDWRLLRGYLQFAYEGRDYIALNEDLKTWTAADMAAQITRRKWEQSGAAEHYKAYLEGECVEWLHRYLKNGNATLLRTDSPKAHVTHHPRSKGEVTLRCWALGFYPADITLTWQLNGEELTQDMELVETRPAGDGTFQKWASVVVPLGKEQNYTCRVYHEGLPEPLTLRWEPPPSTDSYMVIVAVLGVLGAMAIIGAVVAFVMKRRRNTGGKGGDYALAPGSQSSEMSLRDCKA

H-2 D^d = H-2 D^d (Mus musculus, UniProt P01900)
Sequence of H-2 D^d (P01900 whole entry, looked up): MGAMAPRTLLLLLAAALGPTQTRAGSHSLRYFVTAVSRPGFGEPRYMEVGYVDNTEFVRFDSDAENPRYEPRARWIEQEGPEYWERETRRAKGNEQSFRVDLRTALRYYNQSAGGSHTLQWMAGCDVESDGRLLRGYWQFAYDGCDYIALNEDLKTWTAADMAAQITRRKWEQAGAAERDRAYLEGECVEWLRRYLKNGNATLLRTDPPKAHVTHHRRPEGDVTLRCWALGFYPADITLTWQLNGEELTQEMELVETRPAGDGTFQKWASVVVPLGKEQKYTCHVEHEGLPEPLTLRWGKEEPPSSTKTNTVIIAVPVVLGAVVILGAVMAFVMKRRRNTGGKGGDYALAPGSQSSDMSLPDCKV

H-2 K^d = H-2 K^d (Mus musculus, UniProt P01902)
Sequence of H-2 K^d (P01887 21-119): as the sequence (P01887 21-119) above
Sequence of H-2 K^d (P01902 22-368): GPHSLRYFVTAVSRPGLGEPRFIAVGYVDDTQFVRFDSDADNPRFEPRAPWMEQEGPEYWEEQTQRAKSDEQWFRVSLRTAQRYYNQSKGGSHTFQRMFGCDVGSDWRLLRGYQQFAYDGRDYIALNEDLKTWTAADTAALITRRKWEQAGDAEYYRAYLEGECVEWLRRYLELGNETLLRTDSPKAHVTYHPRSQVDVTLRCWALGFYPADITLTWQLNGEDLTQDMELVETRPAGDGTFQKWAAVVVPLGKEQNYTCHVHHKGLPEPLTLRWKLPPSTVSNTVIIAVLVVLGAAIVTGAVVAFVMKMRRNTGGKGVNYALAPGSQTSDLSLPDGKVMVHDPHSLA

H-2 K^k = H-2 K^k (Mus musculus, UniProt P04223)
Sequence of H-2 K^k (P01887 21-119): as the sequence (P01887 21-119) above
Sequence of H-2 K^k (P04223 22-369): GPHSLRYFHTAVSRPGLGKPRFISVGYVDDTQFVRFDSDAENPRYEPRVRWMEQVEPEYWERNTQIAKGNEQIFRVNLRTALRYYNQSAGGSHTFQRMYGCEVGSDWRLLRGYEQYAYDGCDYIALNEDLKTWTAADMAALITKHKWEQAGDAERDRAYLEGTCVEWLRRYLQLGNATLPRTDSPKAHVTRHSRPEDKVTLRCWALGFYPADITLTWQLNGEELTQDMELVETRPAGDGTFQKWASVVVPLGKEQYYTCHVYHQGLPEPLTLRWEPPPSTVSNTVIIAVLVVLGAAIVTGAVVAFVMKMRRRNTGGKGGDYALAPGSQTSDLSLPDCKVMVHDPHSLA

Sequence | Normalized average relative binding affinity(ARB) (HLA A*3001) | Normalized average relative binding affinity(ARB) (HLA A*3201) | Normalized average relative binding affinity(ARB) (HLA A*6802) | Normalized average relative binding affinity(ARB) (HLA B*0801) | Normalized average relative binding affinity(ARB) (HLA B*1501) | Normalized average relative binding affinity(ARB) (HLA B*1503) | Normalized average relative binding affinity(ARB) (HLA B*3501) | Normalized average relative binding affinity(ARB) (HLA B*5101) | Normalized average relative binding affinity(ARB) (HLA B*5301) | Normalized average relative binding affinity(ARB) (HLA B*5401) | Normalized average relative binding affinity(ARB) (HLA B*5801) | Normalized average relative binding affinity(ARB) (HLA B*5802) | Normalized average relative binding affinity(ARB) (H-2 D^b) | Normalized average relative binding affinity(ARB) (H-2 D^d) | Normalized average relative binding affinity(ARB) (H-2 K^d) | Normalized average relative binding affinity(ARB) (H-2 K^k)
XXXXXXGXX [3064.0126] | 0.044 | 0.051 | 0.071 | 0.17 | 0.52 | 0.12 | 0.12 | 0.33 | 0.058 | 0.073 | 0.031 | 0.024 | 0.45 | 0.031 | 0.28 | 0.34
XXXXXXHXX [3064.0127] | 0.082 | 0.33 | 0.49 | 1.0 | 0.33 | 0.18 | 0.15 | 0.27 | 0.070 | 0.27 | 0.18 | 0.089 | 0.062 | 0.075 | 0.33 | 0.26
XXXXXXIXX [3064.0128] | 0.16 | 0.094 | 0.55 | 0.030 | 0.40 | 0.29 | 0.48 | 0.59 | 0.10 | 0.15 | 0.65 | 0.058 | 0.33 | 0.048 | 0.045 | 0.037
XXXXXXKXX [3064.0129] | 0.062 | 0.030 | 0.086 | 0.26 | 0.15 | 0.091 | 0.073 | 0.12 | 0.022 | 0.089 | 0.037 | 0.031 | 0.062 | 0.0067 | 0.023 | 0.15
XXXXXXLXX [3064.0130] | 0.21 | 0.86 | 0.56 | 0.60 | 1.0 | 0.24 | 0.21 | 0.65 | 0.32 | 0.13 | 1.0 | 0.014 | 0.26 | 0.036 | 0.10 | 0.10
XXXXXXMXX [3064.0131] | 0.32 | 0.10 | 0.51 | 0.62 | 0.54 | 0.18 | 0.13 | 0.68 | 0.15 | 0.065 | 0.30 | 0.35 | 0.24 | 0.024 | 0.080 | 0.064
XXXXXXNXX [3064.0132] | 0.10 | 0.42 | 0.54 | 0.69 | 0.66 | 1.0 | 0.28 | 0.46 | 0.29 | 0.39 | 0.37 | 0.092 | 0.41 | 0.095 | 0.61 | 0.22
XXXXXXPXX [3064.0133] | 1.0 | 0.088 | 0.37 | 0.36 | 0.62 | 0.16 | 0.31 | 0.53 | 0.50 | 0.32 | 0.22 | 1.0 | 0.26 | 0.020 | 0.021 | 0.10
